Here are results for 8 compounds from patent US20140107143A1, “QUATERNARY OPIOID CARBOXAMIDES” (Rensselaer Polytechnic Institute, priority 2007, published 2014).

The target of data set [1] is T1, human μ opioid receptor (Homo sapiens, UniProt P35372). Briefly: Opioid receptor binding assay, [3H]DAMGO (μ).
Data set [2] has as its target T2, human κ opioid receptor (Homo sapiens, UniProt P41145). The data set can be described thus: Opioid receptor binding assay, [3H]U69,593 (κ). To be noted: for K: δ / K: μ: ratio of Ki values.
Data set [3] concerns the target T3, human δ opioid receptor (Homo sapiens, UniProt P41143).
Data set [4] has as its system morphine-induced antinociception (tail flick). The data set can be described thus: Tail flick antinociception test. Type of data set: in vivo, mice. To be noted: for effect on response to morphine, tail flick: oral. The protocol: Antinociception to acute thermal stimuli was assessed using a commercially available tail flick apparatus (Columbus Instruments, Columbus, Ohio). The tail flick test is purported to be primarily a […] reflexive response assay. In this standard model, mice are gently restrained and their tail is placed over a thermal beam. Once the beam is turned on (instant on; 9.3 watts), the time required to reflexively flick the tail is recorded. The maximum response latency (MRL) was set to 10 seconds to avoid potential thermal injury associated with longer exposure times. If there is no response after 10 seconds, mice are removed and the maximum response latency (MRL; 10 s) is recorded.
Mice (n=10/group) were first tested in the tail flick test to determine a baseline response. […] The mice were administered different doses of an opioid antagonist (IP or PO, 60 minutes prior to testing in the tail flick test). […] All results are compared to the saline-morphine treatment group mean response latency.

Data set [5] in a line: PK evaluation in rats (plasma, LC-MS/MS). To be noted: oral administration, FIG. 4. Type of data set: in vivo. As for the experimental part: Animals were dosed with the example compound and blood samples were collected for 2 hours using the following method. Rats were briefly anesthetized with 1-2% isoflurane and blood samples (approximately […] of whole blood) from a lateral tail vein were collected into tubes containing EDTA. The tubes were centrifuged at 10K×g for 2 minutes to separate plasma. Plasma was pipetted into microcentrifuge vials and stored at −80° C. until plasma levels were determined by liquid chromatography-mass spectrometry/mass spectrometry (LC-MS/MS) (modification of Baranczewski et al., 2006). The lower limit of quantitation (LOQ) for these studies was 1.0 ng/mL and the coefficient of variation for the assay was <4.4%. The mean concentration of the example compound in plasma was calculated for each time point. […]
A bioanalytical assay was developed and qualified for measurement of the example compound in rat plasma. […] The intra-day accuracy and precision were evaluated by analysis of each 80 ng/mL, 40 ng/mL, and 8 ng/mL assay control (n=5 at each concentration) on the same day. Accuracy was calculated as a percentage ratio of measured concentration to nominal concentration and precision was expressed as the coefficient of variation. […] accuracy and precision were evaluated for each 80 ng/mL, 40 ng/mL, and 8 ng/mL assay control over 10 different runs (n=26 for each control sample). […]

Data set [6] concerns the target T2, human κ opioid receptor. Briefly: [35S]GTPγS binding assay, kappa (compound alone / with U50,488). The class given is biochemical. Set-up: expressed in transfected cells. The source says:
Part 4. […] Binding was initiated by the addition of the membranes.

For data set [7], the system named is morphine's blockade of PGE2-induced diarrhea. Briefly: PGE2 model of gut motility. The class given is in vivo, mice. As for the experimental part: To assess the effects of novel, peripherally acting opioid antagonists, we used a PGE2 (a prostaglandin) model of gut motility. PGE2 induces diarrhea within 15 minutes of an intraperitoneal (IP) injection (0.1 mg/kg) in mice.
Mice (n=10/group) were given either an IP injection or oral (PO) administration (via gavage) of a novel opioid antagonist (0-3 mg/kg, IP; 0-30 mg/kg, PO) and placed in a Plexiglas pie cage (Braintree Scientific, Braintree, Mass.). Each pie cage holds up to 10 mice and is 21.5 cm in diameter and 7.5 cm in height. Individual chambers are 5 cm (base) and 9 cm (length). […] 30 minutes later mice were treated with PGE2 (0.1 mg/kg, IP) and again returned to the pie cage. During the final observation, the presence or absence of diarrhea was recorded 15 minutes following PGE2 administration. Mice were only tested once. Saline-saline (10 mL/kg, IP) and saline-morphine were the positive control groups and all results were compared to the saline-morphine treatment group. Data represent the percent of mice with PGE2-induced diarrhea at the time of the final observation.

Data set [8] deals with T1, human μ opioid receptor. Briefly: [35S]GTPγS binding assay, mu (compound alone / with DAMGO).
Description: In a final volume of 0.5 mL, 12 different concentrations of each test compound were incubated with 15 μg (κ), 10 μg (δ) or 7.5 μg (μ) of CHO cell membranes that stably expressed either the human κ or μ opioid receptor. The assay buffer consisted of 50 mM Tris-HCl, pH 7.4, 3 mM MgCl2, 0.2 mM EGTA, 3 μM GDP, and 100 mM NaCl. The final concentration of [35S]GTPγS was 0.080 nM. […] Binding was initiated by the addition of the membranes. […] Data are the mean Emax and EC50 values±S.E.M. from at least three separate experiments, performed in triplicate.
In data set [9] the test system is morphine-induced antinociception (hot plate). The data set can be described thus: Hot plate antinociception test. Type of data set: in vivo, mice. The protocol: Antinociception to acute thermal stimuli was assessed using a commercially available hot plate apparatus (Columbus Instruments, Columbus, Ohio). The hot plate test is purported to be a supraspinal assay of nociception. The hot plate procedure involves placing each mouse on a heated surface and activating a timer. Mice were placed individually on a hot plate (25.4 cm×25.4 cm surrounded by an acrylic box to prevent the animal from escaping); surface temperature=55° C.) and the response latency to lick either hind paw was recorded. The maximum response latency (MRL) was set to 60 seconds to avoid potential thermal injury associated with longer exposure times. The mouse is removed from the heated surface when it either licks a hind paw in response to the heat or after 60 seconds has elapsed. The latency to respond is recorded and the mouse is returned to its home cage.
Mice (n=10/group) were first tested to determine a baseline response. […] Mice were then administered different doses of an opioid antagonist (IP or PO, 60 minutes prior to testing on the hot plate test). […] All results are compared to the saline-morphine treatment group mean response latency.

For the next data set, the system named is μ opioid receptors. To be noted: cited from earlier work.
The test system of another data set is κ opioid receptors. To be noted: cited from earlier work.
A further data set has as its system antinociception. To be noted: cited from earlier work; for duration of action: 1 mg/kg ip in mice.
Data set [10] has as its target T3, human δ opioid receptor. The data set can be described thus: biochemical.
Where [11] appears, read: read-out: [3H]DAMGO (μ) Ki, CHO membranes, human receptor, mean ± SEM.
[12] abbreviates: read-out: [3H]U69,593 (K) Ki, CHO membranes, human receptor, mean ± SEM.

Like-named read-outs stand apart in the source and are kept apart here.

T3 sequence (P41143 whole entry): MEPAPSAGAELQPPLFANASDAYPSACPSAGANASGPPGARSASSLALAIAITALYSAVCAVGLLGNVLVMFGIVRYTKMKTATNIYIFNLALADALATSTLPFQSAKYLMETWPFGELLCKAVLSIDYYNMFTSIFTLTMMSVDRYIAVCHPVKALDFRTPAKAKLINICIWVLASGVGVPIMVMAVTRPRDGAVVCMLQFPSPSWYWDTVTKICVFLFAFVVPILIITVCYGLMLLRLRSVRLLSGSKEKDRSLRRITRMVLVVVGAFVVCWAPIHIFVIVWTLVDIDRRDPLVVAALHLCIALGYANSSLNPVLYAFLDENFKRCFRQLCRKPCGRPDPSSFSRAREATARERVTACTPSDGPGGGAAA
T2 sequence (P41145 whole entry): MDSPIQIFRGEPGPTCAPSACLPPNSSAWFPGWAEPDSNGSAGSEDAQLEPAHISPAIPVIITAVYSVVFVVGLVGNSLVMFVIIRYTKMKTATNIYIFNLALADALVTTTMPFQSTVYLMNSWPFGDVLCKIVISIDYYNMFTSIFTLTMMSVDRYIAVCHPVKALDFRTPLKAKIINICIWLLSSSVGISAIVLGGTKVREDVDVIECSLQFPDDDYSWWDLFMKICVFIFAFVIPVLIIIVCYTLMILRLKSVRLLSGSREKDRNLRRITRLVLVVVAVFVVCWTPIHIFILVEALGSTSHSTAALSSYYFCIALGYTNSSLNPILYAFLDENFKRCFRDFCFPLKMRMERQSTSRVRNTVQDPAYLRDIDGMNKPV
T1 sequence (P35372 whole entry): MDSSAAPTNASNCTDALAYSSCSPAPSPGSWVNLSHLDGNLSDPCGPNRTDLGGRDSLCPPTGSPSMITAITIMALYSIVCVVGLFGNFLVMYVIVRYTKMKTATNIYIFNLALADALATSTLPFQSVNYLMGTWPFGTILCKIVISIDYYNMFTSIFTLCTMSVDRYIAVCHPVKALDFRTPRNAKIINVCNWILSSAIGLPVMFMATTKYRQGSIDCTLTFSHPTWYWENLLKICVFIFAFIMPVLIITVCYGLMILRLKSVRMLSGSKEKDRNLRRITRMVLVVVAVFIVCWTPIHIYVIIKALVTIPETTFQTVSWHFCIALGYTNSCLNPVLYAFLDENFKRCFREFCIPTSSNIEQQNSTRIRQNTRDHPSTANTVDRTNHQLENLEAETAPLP

Turning to `C[N+]1(CC2CC2)CC[C@]23c4c5ccc(O)c4O[C@H]2C(=O)CC[C@@]3(O)[C@H]1C5` (stereo partly shown) [Compound 2, Naltrexone Methiodide, reference compound], the Ki at human μ opioid receptor [1] (setting [11]) worked out at 2 ± 0.27 nM; on human κ opioid receptor [2] (setting [12]), 6.3 ± 0.46 nM. The “K: δ” value at human κ opioid receptor [2] is on record as 143. For the same compound, the “K: μ” value at human κ opioid receptor [2] stood at 0.32.
`C[N+]1(CC2CC2)CC[C@]23c4c5ccc(C(N)=O)c4O[C@H]2C(=O)CC[C@@]3(O)[C@H]1C5` (stereo partly shown) [Compound 4, 3-Carboxamido-naltrexone methiodide]: the melting point was 189 to 190 °C. Moreover, on human δ opioid receptor [3] (@ 10 μm), the “[3H]Naltrindole (δ) inhibition” value was determined as 31% inh. @ 10 μm. Also, at human κ opioid receptor [2], the “K: δ” value is given as 143 and the “K: μ” value is recorded as 0.18. For the same compound, the Ki at human κ opioid receptor [2] (setting [12]) is 210 ± 22 nM.
The compound `C[N+]1(CC2CC2)CC[C@]23CC(=O)CC[C@@]2(O)[C@H]1Cc1ccc(C(N)=O)c(O)c13` (stereo partly shown) [Compound 6, 3-Carboxamido-4-hydroxy-naltrexone methiodide] showed a melting point of 197 to 198 °C. Besides, the “blocking the analgesic effects of morphine, tail flick” value in data set [4] (mice, IP route) is reported as “moderately effective”. Also, in data set [4] (mice, oral administration), the “blocking the effects of morphine, tail flick” value is recorded as “much less effective”. Besides, the “effect on response to morphine, tail flick” value in data set [4] (mice, 10 mg/kg) is on record as “did not affect the response to morphine”. Moreover, the “effect on response to morphine, tail flick” value in [4] (mice, maximum dose 30 mg/kg, FIG. 2) was “only partially reverse”. Besides, the absorption result in data set [5] was “low”. In addition, the Ki at human δ opioid receptor [3] (read-out: [3H]Naltrindole (δ) Ki, CHO membranes, human receptor, mean ± SEM) is 280 ± 21 nM. Moreover, the “agonist properties at the κ opioid receptor” value on human κ opioid receptor [6] (compound alone) is “did not display any agonist properties”. In addition, at human κ opioid receptor [6] (compound alone, Mean ± S.E, read-out: Kappa Cmpd. Alone Emax), the Emax worked out at 3 ± 2.6%. The IC50 at human κ opioid receptor [6] (with 100 nM U50,488, Mean ± S.E) stood at 7800 ± 530 nM. Moreover, the Ki on human μ opioid receptor [1] (setting [11]) came to 1.3 ± 0.13 nM. Moreover, the “activity in blocking PGE2-induced diarrhea” value in data set [7] (mice, doses of 1-10 mg/kg, both routes (IP, PO)) is “very good activity”. Besides, the “reversal of the effects of morphine on PGE2-induced diarrhea” value in [7] (mice, each route, IP and PO, FIG. 1) was “dose-dependent reversal of the effects of morphine”. Also, on human μ opioid receptor [8] (read-out: Mu Cmpd. Alone Emax), the Emax is -0.28 ± 0.39%. Moreover, the IC50 at human μ opioid receptor [8] (read-out: Mu With DAMGO IC50, with 200 nM DAMGO, Mean ± S.E) was 52 nM. Besides, the “Mu With DAMGO Imax” value on human μ opioid receptor [8] (with 200 nM DAMGO, Mean ± S.E) stood at 96 ± 1.2%. In addition, the “blocking the analgesic effects of morphine, hot plate” value in data set [9] (mice, IP route, FIG. 3) is on record as “marginally effective”. The “change from the baseline morphine response, hot plate” value in data set [9] (mice, IP, 3 mg/kg) is recorded as 20-25%. For the same compound, in data set [9] (mice, orally, doses up to 30 mg/kg), the “effect on the response to morphine, hot plate” value is reported as “no effect”. In addition, the “K: μ” value on human κ opioid receptor [2] came to 0.17. Besides, the Ki at human κ opioid receptor [2] (setting [12]) turned out to be 7.7 ± 0.9 nM.
Consider `CC1C2Cc3ccc(O)cc3C1(C)CC[N+]2(C)CC1CC1` (stereo not shown) [Compound 8, Cyclazocine methiodide], for which the melting point lay in the range of 165 to 168 °C. Moreover, at human κ opioid receptor [2], the “K: δ” value was 95 and the “K: μ” value turned out to be 0.2.
For the compound `C[C@H]1C2Cc3ccc(C(N)=O)cc3[C@@]1(C)CCN2CC1CC1` [Compound 8-CAC, 8-carboxamidocyclazocine], the “affinity for μ opioid receptors” value in the data set with μ opioid receptors was “high affinity”. Further, the “affinity for κ opioid receptors” value in the data set on κ opioid receptors was “high affinity”. Further, in the data set with antinociception, the duration of action is 15 h. In addition, the antinociception activity entry in the data set with antinociception (in vivo, mice) is “high antinociception activity”.
`CC1C2Cc3ccc(C(N)=O)cc3C1(C)CC[N+]2(C)CC1CC1` (stereo not shown) [Compound 10, 8-Carboxamido-cyclazocine methiodide] displayed a melting point of 237 to 238 °C. The compound also came in with a Ki at human δ opioid receptor [10] of 360 ± 6.5 nM. For the same compound, at human μ opioid receptor [1], the Ki turned out to be 1.4 ± 0.19 nM. Moreover, at human κ opioid receptor [2], the affinity, expressed as Ki, was 17 ± 1.2 nM; the “K: δ” value turned out to be 21; the “K: μ” value came to 0.082.
As for `C[N@+]1(CC2CC2)CC[C@]23CCCC[C@@]2(O)[C@H]1Cc1ccc(C(N)=O)c(O)c13.[Cl-]` [Compound 14, (17R)-17-(Cyclopropylmethyl)-4,14-dihydroxy-17-methylmorphinan-17-ium-3-carboxamide chloride], the “difference from baseline, tail flick” value in data set [4] (even at 30 mg/kg) was “no statistical difference from baseline”. Further, the “effect on morphine's ability to block PGE2-induced diarrhea” value in data set [7] (IP administration at 3 mg/kg) is given as “reduces morphine's ability to block PGE2-induced diarrhea”. In data set [9] (hot plate test), the “central activity (hot plate)” value is listed as “poor central activity” and the “dose at which a statistical difference from baseline is first seen, hot plate” value came to 30 mg/kg. For the same compound, the “hot plate dose relative to dose required in the PGE2 test” value in [9] (hot plate vs PGE2 test) is given as 3 to 10 times higher dose.
With `C[C@H]1[C@H]2Cc3ccc(O)cc3[C@]1(C)CCN2CC1CC1` [cyclazocine], the duration of action with antinociception is reported as 2 h.

Usually Ki stands for the equilibrium dissociation constant of an inhibitor or competing ligand from its target. As a reminder, the melting point is the temperature, or range, at which the solid turns liquid. For orientation: Emax means the greatest response seen or fitted, relative to the assay's reference. What is called IC50 is the point on the concentration scale where inhibition reaches its midpoint.
